Reference: ChEMBL document CHEMBL1201862, “PubChem BioAssay data set” (2004)
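How tested: cells in 96-well plates exposed to compound for 48 hours at five concentrations. GI50 marks 50% less growth.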 Calls of active or inactive are those of the source. Rule as the data show it: active = GI50 up to about 1.1 µM and inactive = higher.

Assays:
Assay in all cases: NCI tumour cell line growth inhibition, 48 h
T47D = system: T47D
UO-31 = system: UO-31
OVCAR-8 = system: OVCAR-8
PC-3 = system: PC-3
SK-MEL-2 = system: SK-MEL-2
MDA-MB-231 = system: MDA-MB-231
SK-MEL-28 = system: SK-MEL-28
M14 = system: M14
COLO 205 = system: COLO 205
CCRF-CEM = system: CCRF-CEM
NCI-H226 = system: NCI-H226
RXF 393 = system: RXF 393
SF-295 = system: SF-295
HL-60 = system: HL-60
HCT-15 = system: HCT-15
NCI-H23 = system: NCI-H23
HT-29 = system: HT-29
EKVX = system: EKVX
UACC-62 = system: UACC-62
OVCAR-3 = system: OVCAR-3

Row | Compound | GI50 (T47D) | GI50 (UO-31) | GI50 (OVCAR-8) | GI50 (PC-3) | GI50 (SK-MEL-2) | GI50 (MDA-MB-231) | GI50 (SK-MEL-28) | GI50 (M14) | GI50 (COLO 205) | GI50 (CCRF-CEM) | GI50 (NCI-H226) | GI50 (RXF 393) | GI50 (SF-295) | GI50 (HL-60) | GI50 (HCT-15) | GI50 (NCI-H23) | GI50 (HT-29) | GI50 (EKVX) | GI50 (UACC-62) | GI50 (OVCAR-3)
1 | COC(=O)CC(=O)Nc1sccc1S(=O)(=O)c1ccccc1 | > 100 µM (inactive) | 40.5 µM (inactive) | > 100 µM (inactive) | 34.4 µM (inactive) | 66.2 µM (inactive) | > 100 µM (inactive) | > 100 µM (inactive) | 27 µM (inactive) | > 100 µM (inactive) | > 100 µM (inactive) | 40.3 µM (inactive) | 44.4 µM (inactive) | > 100 µM (inactive) | > 100 µM (inactive) | 27.2 µM | > 100 µM (inactive) | > 100 µM (inactive) | > 100 µM (inactive) | 49.1 µM (inactive) | 16.4 µM (inactive)
2 | COc1ccc(N2C(=O)c3cccnc3S2(=O)=O)cc1 | > 100 µM (inactive) | > 100 µM (inactive) | > 100 µM (inactive) | > 100 µM (inactive) | > 100 µM (inactive) | > 100 µM (inactive) | > 100 µM (inactive) | > 100 µM (inactive) | > 100 µM (inactive) | > 100 µM (inactive) | > 100 µM (inactive) | > 100 µM (inactive) | > 100 µM (inactive) | > 100 µM (inactive) | > 100 µM | > 100 µM (inactive) | > 100 µM (inactive) | > 100 µM (inactive) | > 100 µM (inactive) | > 100 µM (inactive)
3 | CCCCC(=O)N/S(=N/C(=O)c1ccccc1)C(Cl)(Cl)Cl (stereo not given) | > 100 µM (inactive) | > 100 µM (inactive) | > 100 µM (inactive) | > 100 µM (inactive) | > 100 µM (inactive) | > 100 µM (inactive) | > 100 µM (inactive) | > 100 µM (inactive) | > 100 µM (inactive) | > 100 µM (inactive) | > 100 µM (inactive) | > 100 µM (inactive) | > 100 µM (inactive) | 79.1 µM (inactive) | > 100 µM | > 100 µM (inactive) | > 100 µM (inactive) | > 100 µM (inactive) | > 100 µM (inactive) | > 100 µM (inactive)
4 | Cc1cc(C)c2nc3c(c(C(O)C4CCCCN4)c2c1)CC/C3=C\c1ccc(Cl)cc1 (stereo not given) | 30.3 µM (inactive) |  | 58.6 µM (inactive) | 54.1 µM (inactive) | 64.9 µM (inactive) | 73.3 µM (inactive) | > 100 µM (inactive) | 75.9 µM (inactive) | 41 µM (inactive) | 25.4 µM (inactive) | > 100 µM (inactive) | 27.7 µM (inactive) | 73.1 µM (inactive) | 10.7 µM (inactive) | 58.7 µM | 85.9 µM (inactive) | 30.4 µM (inactive) | 43.2 µM (inactive) | 65 µM (inactive) | 42.1 µM (inactive)
5 | N#Cc1c(-c2ccccc2)c(/N=N/c2ccc(Cl)cc2)c(=O)n2c1[nH]c1ccccc12 | 97.1 µM (inactive) | 46.9 µM (inactive) | 90.2 µM (inactive) | > 100 µM (inactive) | > 100 µM (inactive) | > 100 µM (inactive) | > 100 µM (inactive) | > 100 µM (inactive) | > 100 µM (inactive) | > 100 µM (inactive) | 65.9 µM (inactive) | 42.1 µM (inactive) | 76.7 µM (inactive) |  | > 100 µM | > 100 µM (inactive) |  | 71.4 µM (inactive) |  | > 100 µM (inactive)
6 | COc1cc(O)c2c(=O)c3c(C)cccc3n(C)c2c1 | > 10 µM (inactive) | > 10 µM (inactive) | > 10 µM (inactive) | > 10 µM (inactive) | > 10 µM (inactive) | > 10 µM (inactive) | > 10 µM (inactive) | > 10 µM (inactive) | > 10 µM (inactive) | > 10 µM (inactive) | > 10 µM (inactive) | > 10 µM (inactive) | > 10 µM (inactive) |  | > 10 µM | > 10 µM (inactive) | > 10 µM (inactive) | 4.17 µM (inactive) | > 10 µM (inactive) | > 10 µM (inactive)
7 | O=c1c2c3c(sc2nc2n1N=C(c1ccc(Cl)cc1)CS2)CCCC3 | > 100 µM (inactive) | > 100 µM (inactive) | > 100 µM (inactive) | > 100 µM (inactive) |  | > 100 µM (inactive) | > 100 µM (inactive) |  | > 100 µM (inactive) | > 100 µM (inactive) | > 100 µM (inactive) | > 100 µM (inactive) | > 100 µM (inactive) | > 100 µM (inactive) | > 100 µM | > 100 µM (inactive) | > 100 µM (inactive) | > 100 µM (inactive) | > 100 µM (inactive) | > 100 µM (inactive)
8 | CC(=O)n1c(COS(C)(=O)=O)nc2ccccc21 | > 100 µM (inactive) | > 100 µM (inactive) | > 100 µM (inactive) | > 100 µM (inactive) | > 100 µM (inactive) | > 100 µM (inactive) | > 100 µM (inactive) | > 100 µM (inactive) | > 100 µM (inactive) |  | > 100 µM (inactive) | > 100 µM (inactive) | 54 µM (inactive) |  | > 100 µM | > 100 µM (inactive) | > 100 µM (inactive) | > 100 µM (inactive) | > 100 µM (inactive) | 58.6 µM (inactive)
9 | CCOP1(=O)OCC2OC(n3cnc4c(N)ncnc43)C(O)C2O1.c1ccccc1 (stereo not given) | > 100 µM (inactive) | > 100 µM (inactive) | > 100 µM (inactive) | > 100 µM (inactive) | > 100 µM (inactive) | > 100 µM (inactive) | > 100 µM (inactive) | > 100 µM (inactive) | > 100 µM (inactive) |  | > 100 µM (inactive) | > 100 µM (inactive) | > 100 µM (inactive) | > 100 µM (inactive) | > 100 µM |  | > 100 µM (inactive) | > 100 µM (inactive) | > 100 µM (inactive) | > 100 µM (inactive)
10 | S=C(N/N=C\C=N/NC(=S)N1CCCCCC1)N1CCCCCC1 | 1.44 µM (inactive) | 8.22 µM (inactive) | 4.65 µM (inactive) | 12.2 µM (inactive) | 17.1 µM (inactive) | > 31.5 µM (inactive) | > 100 µM (inactive) | 18.1 µM (inactive) | 15.9 µM (inactive) |  | 28.6 µM (inactive) | 20.6 µM (inactive) | 7.73 µM (inactive) |  | 8.02 µM | > 31.1 µM (inactive) | 7.28 µM (inactive) | > 57.3 µM (inactive) | 21.2 µM (inactive) | 13.8 µM (inactive)
11 | CCCCCCNCCCNc1c2cc(OC)ccc2nc2cccc([N+](=O)[O-])c12 | 0.109 µM (active) | 0.188 µM (active) |  | 0.144 µM (active) | 0.0764 µM (active) | 0.055 µM (active) | 0.208 µM (active) | 0.143 µM (active) | 0.139 µM (active) | 0.0403 µM (active) | 0.257 µM (active) | 0.0245 µM (active) | 0.0865 µM (active) | 0.214 µM (active) | 0.198 µM | 0.124 µM (active) | 0.0326 µM (active) | 0.0986 µM (active) | 0.143 µM (active) | 0.0966 µM (active)
12 | c1ccc2c3c([nH]c2c1)C1CCCN1CC3 (stereo not given) | > 10 µM (inactive) | > 10 µM (inactive) | > 10 µM (inactive) | > 10 µM (inactive) | > 10 µM (inactive) | > 10 µM (inactive) | > 10 µM (inactive) | > 10 µM (inactive) | > 10 µM (inactive) | > 10 µM (inactive) | > 10 µM (inactive) | > 10 µM (inactive) | > 10 µM (inactive) | > 10 µM (inactive) | > 10 µM | > 10 µM (inactive) | > 10 µM (inactive) | > 10 µM (inactive) |  | > 10 µM (inactive)
13 | COc1cccc2[nH]c(-c3ccccn3)nc12 | > 100 µM (inactive) | 44.8 µM (inactive) | > 100 µM (inactive) | > 100 µM (inactive) | > 100 µM (inactive) | > 100 µM (inactive) | > 100 µM (inactive) | > 100 µM (inactive) | > 100 µM (inactive) |  | > 100 µM (inactive) | > 100 µM (inactive) | 52.6 µM (inactive) |  | 55.7 µM | > 100 µM (inactive) | > 100 µM (inactive) | > 100 µM (inactive) | > 100 µM (inactive) | 55.7 µM (inactive)
14 | N=C(N)N/N=C/c1nc2sccn2c1[N+](=O)[O-] | 18.2 µM (inactive) | 65.3 µM (inactive) | 34 µM (inactive) | 35.2 µM (inactive) | 19 µM (inactive) | 26.2 µM (inactive) | > 100 µM (inactive) | 22.6 µM (inactive) | 16.2 µM (inactive) |  | 81.1 µM (inactive) | 8.77 µM (inactive) | 33.3 µM (inactive) | 6.58 µM (inactive) | 47.8 µM | 18.1 µM (inactive) | 26.2 µM (inactive) | 34.2 µM (inactive) | 30.9 µM (inactive) | 17.9 µM (inactive)
15 | O=C1/C(=C/c2ccc(Cl)cc2)CSc2ccccc21 | 28 µM (inactive) | 17.6 µM (inactive) | 20.5 µM (inactive) | 14.1 µM (inactive) | 15.7 µM (inactive) | 19 µM (inactive) | 23.1 µM (inactive) | 31.8 µM (inactive) | 25.3 µM (inactive) | 3.1 µM (inactive) | 17.4 µM (inactive) | 18.2 µM (inactive) |  | 17.9 µM (inactive) | 4.62 µM | 21.3 µM (inactive) | 19.4 µM (inactive) |  | 3.34 µM (inactive) | 22.3 µM (inactive)
